Source: patent EP0802900B1, “ANTIARRHYTHMIC (S)-ENANTIOMERS OF METHANESULFONAMIDES” (priority 1995, dated 1996)
Read-outs that look alike come from different tables or passages of the source.

How the values were obtained:
[1] = tested on: methoxamine treated rabbits; experiment: Early after depolarizations (EAD) and polymorphic ventricular tachycardia (PVT) in methoxamine treated anesthetized rabbits; type: in vivo, New Zealand White rabbits; details: for EAD: Magnitude of the maximum early after depolarization amplitude as a percent of the monophasic action potential amplitude (APA) / MAPD90: Maximum increase in the ventricular monophasic action potential duration from the methoxamine infusion baseline, measured at 90% repolarization / PVT: Ratio of the number of animals that developed polymorphic ventricular tachycardia to the total number of animals evaluated / QTc: Maximum increase in QTc interval from the methoxamine infusion baseline: continuous intravenous infusion over 1 hour, methoxamine 10 µg/kg/minute
Description: The Formula I compounds were evaluated for their ability to produce early after depolarizations (EAD) and polymorphic ventricular tachycardia (PVT) in methoxamine treated rabbits. The method used was as follows:
Male New Zealand White rabbits (2.5 - 3.5 kg,) were pretreated with subcutaneous morphine sulfate (5 mg/kg) 30 minutes prior to anesthesia. Anesthesia was induced by infusion of α-chloralose (90 - 120 mg/kg) through a marginal ear vein over a period of 20 to 30 minutes. A tracheotomy was performed and the rabbit was respirated with room air (5 - 6 cc/kg) using a small animal ventilator (Columbus Instruments, Columbus, OH). Respiration rate, and tidal volume were adjusted, and supplemental oxygen administered to maintain arterial blood gases and pH within normal physiologic ranges. Catheters were placed in a jugular vein and carotid artery for administration of drugs, and measurement of arterial blood pressure, respectively. A 4 French monophasic action potential catheter was introduced through a jugular vein for monitoring of right ventricular monophasic action potential duration which was measured at 90% repolarization (MAPD90), A lead II ECG and arterial blood pressure were monitored throughout the experiments.
All records were obtained on a multichannel recorder (Gould ES 2000, Cleveland, OH) and experiments were continuously recorded on FM magnetic tape (TEAC 501, Montebello, CA) for subsequent playback and analysis.
Following experimental preparation, the rabbits were allowed to equilibrate for 10 minutes before baseline measurements of heart rate, aortic blood pressure, and QTc interval were made. During the equilibration period, monophasic action potentials were monitored and the catheter adjusted to produce action potentials with a stable amplitude. Following baseline measurements, the α1 agonist methoxamine was infused at a rate of 10 µg/kg/minute at an infusion volume of 12.0 ml/hr. After 15 minutes of methoxamine administration, intravenous infusion of saline (vehicle control) or a class III agent was begun. All agents were administered as a continuous infusion over a 1 hour period. Measurement of heart rate, aortic blood pressure. QTc interval (as defined below), and MAPD90 were repeated at several time points during drug administration to provide dose-response relationships. QTc and MAPD90 were also monitored to insure that maximal class III effects on these parameters had been achieved.
Total accumulated dose at the first incidence of PVT was also measured. Repolarization arrhythmias were characterized as early after depolarizations and extrasystoles during repolarization which produced extrasystoles in lead II ECG. PVT was considered to have occurred if 3 or more closely coupled repetitive extrasystoles with a twisting or torsioning QRS morphology were observed.
QT intervals were corrected for heart rate changes using the formula QTc = QT/square root R-R interval. EADs were compared between treatment groups at stable monophasic action potential amplitudes (APA) and are reported as a percent of the APA.
Examples of Formula I compounds evaluated in this manner are collected in Table II. A measure of Class III antiarrhythmic activity is indicated by an increase in QTc and MAPD90. The proarrhythmic potential is indicated by the incidence and magnitude of the EADs and by the ratio of the incidence of PVT to the total number of animals tested. The corresponding data for ibutilide, a compound of U.S. Patent 5,155,268, and the racemc forms Examples (R.S) (compounds of PCT WO 91/01299) are shown for comparison.

rabbit papillary muscle = experiment: Electrophysiological activity in isolated, perfused rabbit cardiac tissue (effective refractory period); set-up: species or system New Zealand White rabbits; details: drug concentration of 10^-5M; for activation at 10 µM: Oryctolagus cuniculus
Description: According to Scheme 1, in Step I, (4-methanesulfonylamino)-γ-oxobenzenebutanoic acid (II, prepared as described in EP 164 865) is convened to the N-ethylamide (III). Standard amide forming reagents such as dicyclohexylcarbodiimide or preferably isobutyl chloroformate can be used for this purpose. In Step II the ketone of III is reduced with the chiral reagent (-)-B-chlorodiisopinocamphenylborane in tetrahydrofuran. The reaction is carried out below 0°C and preferably at -25 to -35°C. A nonaqueous work up is used to facilitate isolation of the water soluble product. The (S)-(-) enantiomer of the chiral alcohol is obtained. Purification of this alcohol by recrystallization from acetonitrile, methanol, ethanol, tert-butyl methyl ether or mixtures thereof gives IV with high enantiomeric purity. In Step III the amide of IV is reduced with sodium bis-(2-methoxyethoxy)aluminum hydride in tetrahydrofuran at 24°C. A neutral nonaqueous work up is employed to facilitate isolation of the water soluble product (V). Alkylation of V with appropriately substituted alkyl bromides (R3CH2Br) to give the compounds (I) of this invention is accomplished in Step IV. The preferred conditions for this reaction employ acetonitrile as solvent and the weakly basic sodium bicarbonate to neutralize the hydrogen bromide generated by the reaction. The reaction is usually carried out at the reflux temperature (81°C). [drawing 2] The Formula I compounds were evaluated for electrophysiological activity in an isolated, perfused rabbit cardiac tissue system. The method used was as follows:
New Zealand White rabbits of either sex (1.5-2.0 kg) were anesthetized and their hearts removed. The heart was immersed in ice cold perfusate while the right atria (RA), papillary muscles (PAP), and right ventricular muscle strips (RV) were isolated. The perfusate was continuously oxygenated with 95% oxygen and 5% carbon dioxide and contained the following in mM concentrations: NaCI 118.0; KCl 5.4; NaHCO3 25.0; MgCl2 1.2: KH2PO4 1.0; CaCl2 2.4; glucose […] and pyruvic acid 2.0. During hypoxic conditions the perfusate was exposed to a mixture of 83% nitrogen, 10% carbon dioxide and 7% oxygen. The pH during normoxia was approximately 7.4 and dropped to approximately 7.2 during hypoxic conditions.
The tissues were individually mounted on a plexiglass holder containing platinum stimulating electrodes and suspended in a 100 ml bath maintained at 30°C by a circulating heat pump. All tissues were attached by silk suture to a force-displacement transducer and a tissue-dependent preload of 500-1000 mg was applied. RA were allowed to contract spontaneously. RV and PAP were stimulated at 2X threshold with 4 msec rectangular pulses at a frequency of 1 and 3 Hz. (Effective refractory period measurements percent increment over control are ERPI and ERP3, conduction time measurements are CT1 and CT3). Between measurements those tissues were stimulated at a resting pace of 2 Hz. Each tissue served as its own baseline control and was allowed an equilibration period of two hours prior to experiments. During this period the perfusate was changed every 10-15 minutes.
Working solutions of the drugs were prepared by dissolving the drugs in distilled water and one drop of NaOH/ml to aid in dissolution (pH 9.4).
Measurements were made on each set of tissues after exposure to 10^-7, 10^-6, or 10^-5M drug for 15 minutes; and 10^-5M drug under hypoxic conditions for 15 minutes.
Automaticity (RATE), force of contraction (FOC) and threshold were measured directly on a polygraph. The ERP of cardiac tissues by definition is the longest coupling interval between the basic drive (S1) and the premature impulse (S2) that fails to propagate through the tissue. The S2 stimulus was introduced after every eighth Sl which allowed time for stabilization of refractoriness. Refractory period measurements were made via a digital timing circuit. […]

[2] = value in parentheses in EAD column
[3] = pacing rate of 1 Hz, read-out: ERP1: percent increase in the effective refractory period over control values
[4] = pacing rate of 3 Hz, read-out: ERP3: percent increase in the effective refractory period over control values

**Q.** For `CCN(CCCCCC(C)(C)F)CCCC(O)c1ccc(NS(C)(=O)=O)cc1` (racemic) [(R,S) 3], which “EAD: Magnitude of the maximum early after depolarization amplitude as a percent of the monophasic action potential amplitude (APA)” value [1] is on record?
**A.** Its value is 35%.

**Q.** What about the “MAPD90: Maximum increase in the ventricular monophasic action potential duration from the methoxamine infusion baseline, measured at 90% repolarization” value (from here on “MAPD90: Maximum increase … at 90% repolarization”) [1] of the same compound?
**A.** The value was “+96 m sec”.

**Q.** And the “PVT: Ratio of the number of animals that developed polymorphic ventricular tachycardia to the total number of animals evaluated” value (shortened to “PVT: Ratio”) [1]?
**A.** The value was 1/6.

**Q.** What about the “QTc: Maximum increase in QTc interval from the methoxamine infusion baseline” value (from here on “QTc: Maximum increase in QTc interval”) [1] of the same compound?
**A.** Its value is “+136 m sec”.

**Q.** And the “Total accumulated dose of test compound when the maximum EAD was measured” value (“Total accumulated dose of test compound” below) [1, 2]?
**A.** The value was 0.25 mg/kg.

**Q.** What about the “Total accumulated dose at the first incidence of PVT” value (shortened to “Total accumulated dose … of PVT”) ([1]; value in parentheses in PVT) of the same compound?
**A.** Its value is 0.2 mg/kg.

**Q.** What does the source list for “(S)-(-)-N-[4-[4-[Ethyl(7-fluoroheptyl)amino]-1-hydroxybutyl]phenyl] methanesulfonamide, (E)-2-Butenedioate (2:1 salt) [Example 1]”?
**A.** EAD: Magnitude of the maximum early after depolarization amplitude as a percent of the monophasic action potential amplitude (APA) [1]: 0%; MAPD90: Maximum increase in the ventricular monophasic action potential duration from the methoxamine infusion baseline, measured at 90% repolarization [1]: +70 m sec; PVT: Ratio of the number of animals that developed polymorphic ventricular tachycardia to the total number of animals evaluated [1]: 0/16; QTc: Maximum increase in QTc interval from the methoxamine infusion baseline [1]: +112 m sec; ERP1: percent increase in the effective refractory period over control values (rabbit papillary muscle; pacing rate of 1 Hz): 43.5%; ERP3: percent increase in the effective refractory period over control values (rabbit papillary muscle; pacing rate of 3 Hz): 26.1%

**Q.** With `CCN(CCCCCC(C)F)CCCC(O)c1ccc(NS(C)(=O)=O)cc1` (racemic) [(R,S) 2] as the compound, how does the “EAD: Magnitude of the maximum early after depolarization amplitude as a percent of the monophasic action potential amplitude (APA)” value [1] read?
**A.** The value was 63%.

**Q.** And the “MAPD90: Maximum increase … at 90% repolarization” value [1]?
**A.** Its value is “+141 m sec”.

**Q.** What about the “PVT: Ratio” value [1] of the same compound?
**A.** Its value is 3/6.

**Q.** What about the “QTc: Maximum increase in QTc interval” value [1] of the same compound?
**A.** The value was “+166 m sec”.

**Q.** And the “Total accumulated dose of test compound” value [1, 2]?
**A.** Its value is 1 mg/kg.

**Q.** What about the “Total accumulated dose … of PVT” value ([1]; value in parentheses in PVT) of the same compound?
**A.** Its value is 0.2 mg/kg.

**Q.** What does the source list for `CCN(CCCCCC(C)(C)F)CCC[C@H](O)c1ccc(NS(C)(=O)=O)cc1` [Example 3, (S)-(-)-N-[4-[4-[Ethyl(6-fluoro-6-methylheptyl)amino]-1-hydroxybutyl]phenyl]-methanesulfonamide]?
**A.** EAD: Magnitude of the maximum early after depolarization amplitude as a percent of the monophasic action potential amplitude (APA) [1]: 0%; MAPD90: Maximum increase in the ventricular monophasic action potential duration from the methoxamine infusion baseline, measured at 90% repolarization [1]: +75 m sec; PVT: Ratio of the number of animals that developed polymorphic ventricular tachycardia to the total number of animals evaluated [1]: 0/16; QTc: Maximum increase in QTc interval from the methoxamine infusion baseline [1]: +82 m sec; activation at 10 µM (rabbit papillary muscle; [3]): 21.4%; activation at 10 µM (rabbit papillary muscle; [4]): 25.4%

**Q.** Which results are given for `CCN(CCCCCCCF)CCCC(O)c1ccc(NS(C)(=O)=O)cc1` (racemic) [(R,S) 1]?
**A.** EAD: Magnitude of the maximum early after depolarization amplitude as a percent of the monophasic action potential amplitude (APA) [1]: 52%; MAPD90: Maximum increase in the ventricular monophasic action potential duration from the methoxamine infusion baseline, measured at 90% repolarization [1]: +128 m sec; PVT: Ratio of the number of animals that developed polymorphic ventricular tachycardia to the total number of animals evaluated [1]: 1/6; QTc: Maximum increase in QTc interval from the methoxamine infusion baseline [1]: +143 m sec; Total accumulated dose of test compound when the maximum EAD was measured [1, 2]: 0.5 mg/kg; Total accumulated dose at the first incidence of PVT ([1]; value in parentheses in PVT): 2 mg/kg

**Q.** For “(S)-(-)-N-[4-[4-[Ethyl(6-fluoroheptyl)amino]-1-hydroxybutyl]phenyl]methanesulfonamide, (E)-2-Butenedioate (2:1 salt) [Example 2]”, which “EAD: Magnitude of the maximum early after depolarization amplitude as a percent of the monophasic action potential amplitude (APA)” value [1] is on record?
**A.** The value was 0%.

**Q.** And the “MAPD90: Maximum increase … at 90% repolarization” value [1]?
**A.** Its value is “+88 m sec”.

**Q.** What about the “PVT: Ratio” value [1] of the same compound?
**A.** Its value is 0/16.

**Q.** What about the “QTc: Maximum increase in QTc interval” value [1] of the same compound?
**A.** Its value is “+119 m sec”.

**Q.** And the “ERP1: percent increase in the effective refractory period over control values” (rabbit papillary muscle; pacing rate of 1 Hz)?
**A.** Its value is 30.7%.

**Q.** What about the “ERP3: percent increase in the effective refractory period over control values” (rabbit papillary muscle; pacing rate of 3 Hz) of the same compound?
**A.** Its value is 8.7%.

**Q.** How did the “MAPD90: Maximum increase … at 90% repolarization” value [1] turn out when `CCCCCCCN(CC)CCCC(O)c1ccc(NS(C)(=O)=O)cc1` (stereo not drawn) [Ibutilide, ibutilide] was run?
**A.** Its value is “+114 m sec”.

**Q.** And the “QTc: Maximum increase in QTc interval” value [1]?
**A.** The value was “+95 m sec”.

**Q.** What about the “Total accumulated dose … of PVT” value ([1]; rabbit, in vivo) of the same compound?
**A.** Its value is 1 mg/kg.

**Q.** What about the “Total accumulated dose of test compound” value ([1]; rabbit, in vivo) of the same compound?
**A.** Its value is 4 mg/kg.

**Q.** What about the activation at 10 µM (rabbit papillary muscle; [3]) of the same compound?
**A.** The activation at 10 µM was 18%.

**Q.** What about the activation at 10 µM (rabbit papillary muscle; [4]) of the same compound?
**A.** Its activation at 10 µM is 15.8%.
